What was measured:
[1] = test system: clinically isolated Streptococcus strains; assay: Activity against clinically isolated Streptococcus strains, general statement; assay type: cell-based; conditions: in words
Excerpt: (§1) Another favorable characteristic of the antibiotic substance gardimycin is that it is active against clinically isolated Streptococcus strains.

Streptococcus viridans = assay: Minimal inhibitory concentration, clinically isolated strains (Table 2); assay type: cell-based
Excerpt: as §1

[2] = test system: Streptococcus haemolyticus; assay: as above; assay type: cell-based
Excerpt: as §1

[3] = Antibacterial in vivo activity, general statement; conditions: in words
Excerpt: (§2) Metabolite A, metabolite B (hereafter referred to as gardimycin) as well as its salts with alkali and alkali earth metals and metabolite C show good antibacterial in vitro and in vivo activities.

[4] = Antibacterial in vitro activity, general statement; assay type: cell-based; conditions: in words
Excerpt: as §2

[5] = test system: Clostridium perfringens ISS 30543; assay type: cell-based
[6] = test system: Streptococcus haemolyticus C 203; assay: Experimental infection in mice; assay type: in vivo
[7] = test system: Diplococcus pneumoniae UC 41; assay: Experimental infection in mice; assay type: in vivo
[8] = test system: pathogenic bacteria of the genus Diplococcus and Streptococcus; assay: In vivo activity against experimental infections in mice, general statement; conditions: in words
[9] = test system: Streptococcus haemolyticus C 203; assay: In vitro minimal inhibitory concentration (Table 1); assay type: cell-based
Excerpt: as §2

[10] = test system: Micrococcus flavus ATCC 10240; assay: as above; assay type: cell-based
Excerpt: as §2

[11] = test system: Staphylococcus aureus ATCC 538; assay: as above; assay type: cell-based
Excerpt: as §2

[12] = test system: Streptococcus faecalis ATCC 10541; assay: as above; assay type: cell-based
Excerpt: as §2

[13] = test system: Neisseria gonorrheae ATCC 9826; assay: as above; assay type: cell-based
Excerpt: as §2

[14] = test system: Diplococcus pneumoniae UC 41; assay: as above; assay type: cell-based
Excerpt: as §2

Toxicity (LD50) = assay type: in vivo

For gardimycin, the “activity against clinically isolated Streptococcus strains” value [1] was “active”, the Minimal inhibitory concentration (Streptococcus viridans; clinically isolated strain 2057) was 5 µg/mL and the Minimal inhibitory concentration (Streptococcus viridans; clinically isolated strain 2085) was 2 µg/mL. The Minimal inhibitory concentration ([2]; clinically isolated strain 2078) was 1 µg/mL, the Minimal inhibitory concentration ([2]; clinically isolated strain 2087) was 1 µg/mL and the “antibacterial in vivo activity” value [3] was “good”. For the same substance, the “antibacterial in vitro activity” value [4] was “good”, the Minimal inhibitory concentration [5] was 2 µg/mL and the ED50 [6] was 0.75 mg/kg. For the same substance, the ED50 [7] was 30 mg/kg, the “in vivo activity against experimental infections” value [8] was “very interesting in vivo activity” and the Minimal inhibitory concentration [9] was 2 µg/mL. For the same substance, the Minimal inhibitory concentration [10] was 1 µg/mL, the Minimal inhibitory concentration [11] was 50 µg/mL and the Minimal inhibitory concentration [12] was 50 µg/mL. For the same substance, the Minimal inhibitory concentration [13] was 20 µg/mL, the Minimal inhibitory concentration [14] was 50 µg/mL and the LD50 (Toxicity (LD50); i.p.) was “higher than 1000 mg/Kg”. For the same substance, the LD50 (Toxicity (LD50); i.v.) was “about 2000 mg/Kg” and the toxicity (Toxicity (LD50); in words) was “very low toxicity”.

Source: patent US4022884A, “Gardimycin and process for producing same” (Gruppo Lepetit S.p.A., priority 1974, dated 1977)
